# PMC6798376, “Production of galactitol from galactose by the oleaginous yeast Rhodosporidium toruloides IFO0880” (Biotechnology for Biofuels, 2019)
# Experiments:
# [1] = molecular target: T1, AldR (aldose reductase; also printed AdhR) (Rhodotorula toruloides, UniProt A0A2S9ZVX5); assay: spectrophotometric NADPH assay at […] nm; format: biochemical; settings: 10 mM galactose as co-substrate; 20 mM Tris-HCl pH 7.0; 25 °C
# [2] = molecular target: T1, AldR (aldose reductase; also printed AdhR); assay: spectrophotometric NADPH assay at […] nm; product galactitol by HPLC; format: biochemical; settings: NADPH as coenzyme; 10 mM galactose; 20 mM Tris-HCl pH 7.0; 25 °C
# T1 sequence (A0A2S9ZVX5 entry or part of it): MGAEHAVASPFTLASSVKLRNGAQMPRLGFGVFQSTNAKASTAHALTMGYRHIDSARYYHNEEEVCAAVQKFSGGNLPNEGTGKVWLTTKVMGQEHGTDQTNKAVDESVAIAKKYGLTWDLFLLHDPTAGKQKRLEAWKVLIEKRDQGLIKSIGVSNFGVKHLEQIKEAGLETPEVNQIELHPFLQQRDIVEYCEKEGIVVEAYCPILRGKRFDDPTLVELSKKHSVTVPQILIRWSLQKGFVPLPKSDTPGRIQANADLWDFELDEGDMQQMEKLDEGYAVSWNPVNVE
Compound,spectrophotometric NADPH assay at 340 nm [1],spectrophotometric NADPH assay at 340 nm; product galactitol by HPLC [2]
NC(=O)C1=CN([C@@H]2O[C@H](COP(=O)(O)OP(=O)(O)OC[C@H]3O[C@@H](n4cnc5c(N)ncnc54)[C@H](OP(=O)(O)O)[C@@H]3O)[C@@H](O)[C@H]2O)C=CC1 [NADPH],"AldR is an NADPH-dependent enzyme, like other galactose reductases",–
OC[C@H]1OC(O)[C@H](O)[C@@H](O)[C@H]1O (some centres unmarked) [galactose],–,The recombinant enzyme exhibited activity against galactose with NADPH as the coenzyme
